Measurements reported in ChEMBL document CHEMBL1201862, “PubChem BioAssay data set” (2004).
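All cell lines were grown in 96-well plates and treated with compound for 48 hours. Abbreviation: GI50, concentration required for 50% inhibition of growth.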 Active and inactive are the calls of the source. Cut-off read from the data, not from the text of the source: active = GI50 up to about 1.1 µM and inactive = higher.

Assays:
Experiment in all cases: NCI anticancer screen, dose series, 48 h
[1] = test system: SNB-19
[2] = test system: BT-549
[3] = test system: SK-MEL-28
[4] = test system: UACC-62
[5] = test system: MDA-N
[6] = test system: COLO 205
[7] = test system: T47D
[8] = test system: OVCAR-4
[9] = test system: NCI/ADR-RES
[10] = test system: HT-29
[11] = test system: EKVX
[12] = test system: HCC 2998
[13] = test system: OVCAR-3
[14] = test system: SW-620
[15] = test system: DU-145

SMILES | GI50 [1] | GI50 [2] | GI50 [3] | GI50 [4] | GI50 [5] | GI50 [6] | GI50 [7] | GI50 [8] | GI50 [9] | GI50 [10] | GI50 [11] | GI50 [12] | GI50 [13] | GI50 [14] | GI50 [15]
COc1ccc(N2C(=O)/C(=C\c3ccccc3)SC2c2cc(OC)c(OC)c(OC)c2)cc1 (centres undefined) | > 100 µM (inactive) | > 100 µM (inactive) | > 100 µM (inactive) | 52.5 µM (inactive) | 16.9 µM (inactive) | 74.1 µM (inactive) | 20.1 µM (inactive) | 82.4 µM (inactive) | > 100 µM (inactive) | 96.6 µM (inactive) | 15 µM (inactive) | > 100 µM (inactive) |  |  | 
CNC(=O)OC(COC)CN1CCN(c2ccccc2C)CC1 (centres undefined) | > 10 µM (inactive) |  | > 10 µM (inactive) | > 10 µM (inactive) |  | > 10 µM (inactive) | > 10 µM (inactive) | > 10 µM (inactive) | > 10 µM (inactive) | > 10 µM (inactive) | > 10 µM (inactive) | > 10 µM (inactive) | > 10 µM (inactive) | > 10 µM (inactive) | > 10 µM (inactive)
Cc1ccc(NC=O)c(-c2c(N)[nH]c(=S)[nH]c2=O)c1 | > 100 µM (inactive) | > 100 µM (inactive) |  | > 100 µM (inactive) | > 100 µM (inactive) | > 100 µM (inactive) | > 100 µM (inactive) |  | > 100 µM (inactive) | > 100 µM (inactive) | > 100 µM (inactive) |  | 94.2 µM (inactive) | > 100 µM (inactive) | > 100 µM (inactive)
COc1cc2c(c(OC)c1OC)-c1ccc(SC)cc1C(=O)CC2 | < 0.01 µM (active) | > 100 µM (inactive) |  | < 0.01 µM (active) | 0.0243 µM (active) | < 0.01 µM (active) | > 100 µM (inactive) | 7.76 µM (inactive) |  | < 0.01 µM (active) | < 0.0382 µM (active) | < 0.01 µM (active) | < 0.01 µM (active) | < 0.0228 µM (active) | < 0.01 µM (active)
COC(=O)CC1CN(C(=O)OCc2ccccc2)C(C)(C)O1 (centres undefined) | 7.08 µM (inactive) | 4.97 µM (inactive) | 9.06 µM (inactive) | > 100 µM (inactive) | > 100 µM (inactive) | > 100 µM (inactive) |  | > 100 µM (inactive) | > 100 µM (inactive) |  | 35.2 µM (inactive) | > 100 µM (inactive) | > 100 µM (inactive) | > 100 µM (inactive) | > 100 µM (inactive)
COc1cc([N+](=O)[O-])c(S(=O)(=O)O)cc1-n1nc(-c2ccccc2)n[n+]1-c1cc(S(=O)(=O)[O-])c([N+](=O)[O-])cc1OC | > 100 µM (inactive) |  | > 100 µM (inactive) | > 100 µM (inactive) | > 100 µM (inactive) | > 100 µM (inactive) | > 100 µM (inactive) | > 100 µM (inactive) | > 100 µM (inactive) | > 100 µM (inactive) | > 100 µM (inactive) | > 100 µM (inactive) | > 100 µM (inactive) | > 100 µM (inactive) | > 100 µM (inactive)
c1cc2nnnn2nc1N1CCCC1 | > 100 µM (inactive) |  | > 100 µM (inactive) | > 100 µM (inactive) | > 100 µM (inactive) | > 100 µM (inactive) |  | > 100 µM (inactive) | > 100 µM (inactive) | > 100 µM (inactive) |  | > 100 µM (inactive) |  | > 100 µM (inactive) | > 100 µM (inactive)
Oc1ccc(-c2nc3ccc(Br)cc3s2)cc1 | 23.3 µM (inactive) | 18.1 µM (inactive) |  | 13 µM (inactive) | 25.6 µM (inactive) | 15.9 µM (inactive) |  |  | 18.1 µM (inactive) | 18.2 µM (inactive) | 13 µM (inactive) |  | 14.3 µM (inactive) | 32.2 µM (inactive) | 16.9 µM (inactive)
CCOC(=O)C1=CC(C)(C(=O)OCC)Nc2c(nc(OC)[nH]c2=O)N1 (centres undefined) | > 10 µM (inactive) |  | > 10 µM (inactive) |  | > 10 µM (inactive) | > 10 µM (inactive) | > 10 µM (inactive) | > 10 µM (inactive) | > 10 µM (inactive) | > 10 µM (inactive) | > 10 µM (inactive) | > 10 µM (inactive) | > 10 µM (inactive) | > 10 µM (inactive) | > 10 µM (inactive)
CC(C)C[P+](c1ccccc1)(c1ccccc1)c1ccccc1 | 9.35 µM (inactive) | 4.75 µM (inactive) | 22.6 µM (inactive) | 3.85 µM (inactive) |  | 3.08 µM (inactive) | 11.8 µM (inactive) | 12.1 µM (inactive) | > 100 µM (inactive) | 3.64 µM (inactive) | 3.1 µM (inactive) | 8.57 µM (inactive) | 2.31 µM (inactive) | 5.87 µM (inactive) | 6.95 µM (inactive)
N#Cc1ccccc1NC(=O)C(=O)c1c(O)c2ccccc2oc1=O | > 100 µM (inactive) | > 100 µM (inactive) | > 100 µM (inactive) | > 100 µM (inactive) | > 100 µM (inactive) |  | > 100 µM (inactive) | > 100 µM (inactive) | > 100 µM (inactive) | > 100 µM (inactive) | > 100 µM (inactive) | > 100 µM (inactive) | > 100 µM (inactive) | > 100 µM (inactive) | 
